Source: patent US7452997B2 (priority 2004, dated 2008)
Like-named read-outs stand apart in the source and are kept apart here.

What was measured:
[1] = target: T1, human CB1 receptor (Homo sapiens, UniProt P21554); test: biochemical; format: binding
T1 construct: expressed in transfected cells; host or cells: SK-N-MC cells, stably transfected with pcDNA3 CB-1 (human); semi-purified membrane pellet
Procedure, shortened: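 Membranes from SK-N-MC cells stably expressing human CB1, incubated 90 minutes at 30° C in Tris-HCl buffer with MgCl2, EDTA and fatty acid free BSA, pH 7.5. Bound counts collected by filtration and scintillation counting; IC50 from linear regression over varying compound concentrations.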

[2] = target: T2, human CB2 receptor (Homo sapiens, UniProt P34972); test: Binding assay, cannabinoid CB2 receptor ([3H]-CP-55,940 displacement); conditions: Cannabinoid CB2 Receptor Binding IC50, human CB2 receptor, SK-N-MC cell membranes, radioligand CP-55,940 0.2 nM
Procedure, shortened: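 Membranes from SK-N-MC cells stably expressing human CB2, incubated with test compound and 0.2 nM [3H]-CP-55,940 for 90 min at 30 °C in Tris buffer pH 7.5 with fatty-acid-free BSA. Nonspecific binding defined with 10 uM WIN 55,212; filtration and scintillation counting, IC50 by linear regression.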

[3] = target: T2, human CB2 receptor; test: Functional cell-based assay, CB2 receptor mediated change in CRE β-gal expression (agonist / inverse agonist); conditions: SK-N-MC cells, forskolin
From the text: Functional Cell-Based Assay for CB1 or CB2 Agonist and Inverse Agonist Effects on Intra-Cellular Adenylate Cyclase Activity
The CB1 and CB2 receptors are G-protein coupled receptors (GPCR) which influence cell function via the Gi-protein. These receptors modulate the activity of intracellular adenylate cyclase which in turn produces the intracellular signal messenger cyclic-AMP (cAMP).
At baseline, or during non-ligand bound conditions, these receptors are constitutively active and tonically suppress adenylate cyclase activity. The binding of an agonists causes further receptor activation and produces additional suppression of adenylate cyclase activity. The binding of an inverse agonist inhibits the constitutive activity of the receptors and results in an increase in adenylate cyclase activity.
By monitoring intracellular adenylate cyclase activity, the ability of compounds to act as agonists or inverse agonists can be determined.
Test compounds were evaluated in SK-N-MC cells which, using standard transfection procedures, were stably transfected with human cDNA for pcDNA3-CRE β-gal and pcDNA3 CB1 receptor (human) or pcDNA3 CB2 receptor (human). By expressing CRE β-gal, the cells produced β-galactosidase in response to CRE promoter activation by cAMP. Cells expressing CRE β-gal and either the human CB1 or CB2 receptor will produce less β-galactosidase when treated with a CB1/CB2 agonist and will produce more β-galactosidase when treated with a CB1/CB2 inverse agonist.
The cells were grown in 96-well plates under standard cell culture conditions at 37° C. in a 5% CO2 atmosphere. After 3 days, the media was removed and a test compound in media (wherein the media was supplemented with 2 mM L-glutamine, […] sodium pyruvate, 0.1% low fatty acid FBS (fetal bovine serum) and antibiotics) was added to the cell. The plates were incubated for 30 minutes at 37° C. and the plate cells were then treated with forskolin over a 4-6 hour period, then washed and lysed. The β-galactosidase activity was quantitated using commercially available kit reagents (Promega Corp. Madison, Wis.) and a VMAX Plate Reader (Molecular Devices, Inc).
For cells expressing CRE β-gal and the CB2 receptor, CB2 agonists reduced β-galactosidase activity in a dose-dependent manner and CB2 inverse agonists increased β-galactosidase activity in a dose-dependent manner.
The change in β-galactosidase activity was determined by setting a vehicle treated cell's activity value at 100% and expressing the β-galactosidase activity measured in a corresponding compound treated cell as a percent of the vehicle treated cell activity.
The EC50 values for compounds tested were calculated by linear regression and were obtained from studies in which varying compound concentrations were used.

[4] = inverse agonist, read-out: CB2 Receptor Functional Inverse Agonist EC50
[5] = agonist, read-out: CB2 Receptor Functional Agonist EC50

T2 sequence (P34972 whole entry): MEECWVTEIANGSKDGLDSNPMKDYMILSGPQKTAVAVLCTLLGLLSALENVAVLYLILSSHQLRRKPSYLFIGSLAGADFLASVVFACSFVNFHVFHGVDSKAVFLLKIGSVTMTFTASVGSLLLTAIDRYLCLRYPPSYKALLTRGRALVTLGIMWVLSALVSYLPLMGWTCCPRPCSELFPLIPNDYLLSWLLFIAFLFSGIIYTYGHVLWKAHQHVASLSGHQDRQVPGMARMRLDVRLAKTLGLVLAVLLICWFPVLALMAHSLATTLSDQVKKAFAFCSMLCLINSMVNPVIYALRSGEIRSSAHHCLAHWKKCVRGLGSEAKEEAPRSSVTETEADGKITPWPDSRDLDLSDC
T1 sequence (P21554 whole entry): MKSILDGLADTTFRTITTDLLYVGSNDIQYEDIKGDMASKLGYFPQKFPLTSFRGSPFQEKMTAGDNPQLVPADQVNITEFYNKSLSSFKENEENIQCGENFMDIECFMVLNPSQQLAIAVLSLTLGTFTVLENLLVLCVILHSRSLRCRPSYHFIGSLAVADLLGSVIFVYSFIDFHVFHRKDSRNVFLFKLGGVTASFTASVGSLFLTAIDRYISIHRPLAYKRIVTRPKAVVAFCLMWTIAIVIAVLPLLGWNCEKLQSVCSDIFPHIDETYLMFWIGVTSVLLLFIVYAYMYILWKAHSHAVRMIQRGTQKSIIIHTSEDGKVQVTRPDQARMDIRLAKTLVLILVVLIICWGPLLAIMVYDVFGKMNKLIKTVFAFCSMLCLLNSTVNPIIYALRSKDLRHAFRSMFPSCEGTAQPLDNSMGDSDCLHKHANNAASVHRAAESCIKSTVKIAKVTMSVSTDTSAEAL

Structure (SMILES) | IC50 [1] [µM] | IC50 [2] [µM] | EC50 [3, 4] [µM] | EC50 [3, 5] [µM]
CCOC(=O)[C@H]1CCc2c(c(C(=O)NC3C4CC5CC(C4)CC3C5)nn2C2CCCCC2)C1 (stereo partly drawn) [Cpd 208, (5S)-3-(adamantan-2-ylcarbamoyl)-1-cyclohexyl-4,5,6,7-tetrahydro-1H-indazole-5-carboxylic acid ethyl ester] | 0.66 | 0.014 | 0.0086 | –
CCOC(=O)[C@@H]1CCc2c(c(C(=O)NC3C4CC5CC(C4)CC3C5)nn2C2CCCCC2)C1 (stereo partly drawn) [Cpd 209, (5R)-3-(adamantan-2-ylcarbamoyl)-1-cyclohexyl-4,5,6,7-tetrahydro-1H-indazole-5-carboxylic acid ethyl ester] | 0.26 | 0.2 | 0.074 | –
CC12CCC(C1)C(C)(C)C2NC(=O)c1nn(-c2ccccc2)c2c1CCCC2 (centres unmarked) [compound 1] | 0.377 | 0.0135 | – | 0.015
COC(=O)C(Cc1cccc(OCc2ccccc2)c1)NC(=O)c1nn(-c2ccc(OC)cc2)c2c1CCCC2 (centres unmarked) [compound 3] | – | 0.428 | 0.19 | –
CC12CCC(C1)C(C)(C)C2NC(=O)c1nn(-c2ccc(F)cc2)c2c1CCCC2 (centres unmarked) [compound 10] | 0.045 | 0.006 | – | 0.0019
CC1CCCc2c(C(=O)NC3C4(C)CCC(C4)C3(C)C)nn(-c3ccc(F)cc3)c21 (centres unmarked) [compound 13] | 0.108 | 0.0065 | – | 0.0041
CC12CCC(C1)C(C)(C)C2NC(=O)c1nn(-c2cccc(F)c2)c2c1CCCC2 (centres unmarked) [compound 18] | 0.0918 | 0.0036 | – | 0.0027
CC(NC(=O)c1nn(C2CCCCC2)c2c1CCCC2)C12CC3CC(CC(C3)C1)C2 (centres unmarked) [compound 26] | 0.723 | 0.015 | – | 0.011
O=C(NCC12CC3CC(CC(C3)C1)C2)c1nn(C2CCCCC2)c2c1CCCC2 [compound 32] | 0.02 | 0.0069 | – | 0.047
O=C(NN1CCCCCC1)c1nn(-c2ccc(F)cc2)c2c1CCCC2 [compound 35] | 0.7 | 0.094 | – | 0.035
CCOC(=O)[C@@H]1CCCC[C@@H]1NC(=O)c1nn(C2CCCCC2)c2c1CCCC2 [compound 36] | 0.105 | 0.0128 | – | 0.005
O=C(NN1CCCCCC1)c1nn(C2CCCCC2)c2c1CCCC2 [compound 37] | 0.0693 | 0.112 | – | 0.01
O=C(NC1C2CCC(C2)C1CO)c1nn(C2CCCCC2)c2c1CCCC2 (centres unmarked) [compound 40] | 1.44 | 0.215 | – | 0.031
O=C(NC12CC3CC(CC(C3)C1)C2)c1nn(C2CCCCC2)c2c1CCCC2 [compound 44] | 0.079 | 0.0024 | – | 0.029
O=C(NC1C2CC3CC(C2)CC1C3)c1nn(C2CCCCC2)c2c1CCCC2Cl (centres unmarked) [compound 62] | 0.28 | 0.005 | – | 0.00057
COC(=O)C(Cc1ccc(O)cc1)NC(=O)c1nn(Cc2ccccc2)c2c1CCCC2 (centres unmarked) [compound 75] | 0.0237 | 0.0007 | – | 0.0001
O=C(NC1C2CC3CC(C2)CC1C3)c1nn(C2CCCCC2)c2c1CC(NC(=O)C(F)(F)F)CC2 (centres unmarked) [compound 87] | 0.855 | 0.0266 | – | 0.25
CC(=O)OC1CCc2c(c(C(=O)NC3C4(C)CCC(C4)C3(C)C)nn2C2CCCCC2)C1 (centres unmarked) [compound 94] | 1.78 | 0.02 | – | 0.025
CCOC(=O)C1CCc2c(c(C(=O)NC(C)C34CC5CC(CC(C5)C3)C4)nn2-c2ccccc2)C1 (centres unmarked) [compound 116] | – | 0.99 | 0.5 | –

Structure (SMILES) | IC50 [1] [µM] | IC50 [2] [µM] | EC50 [3, 4] [µM] | EC50 [3, 5] [µM]
O=C(NC1C2CC3CC(C2)CC1C3)c1nn(CC2CCCCC2)c2c1CCCC2 (centres unmarked) [compound 122] | 0.004 | 0.0015 | – | 0.037
CCOC(=O)[C@H]1CCc2c(c(C(=O)NC(C)C34CC5CC(CC(C5)C3)C4)nn2C2CCCCC2)C1 (some centres unmarked) [compound 215] | – | 0.2 | 0.22 | –
COC(=O)C1CCc2c(c(C(=O)NC3C4CC5CC(C4)CC3C5)nn2C2CCCCC2)C1 (centres unmarked) [compound 231] | 0.638 | – | 0.035 | –
CCOC(=O)C1CCc2c(c(C(=O)N[C@H](C)C3CCCCC3)nn2C2CCCCC2)C1 (some centres unmarked) [compound 251] | – | 0.0028 | 0.023 | –
CCOC(=O)[C@H]1C2C=CC(C2)[C@H]1NC(=O)c1nn(Cc2ccccc2)c2c1CCCC2 (some centres unmarked) [compound 276] | 0.135 | 0.25 | – | –
CCOC(=O)[C@@H]1C2C=CC(C2)[C@@H]1NC(=O)c1c2c(nn1Cc1ccccc1)CCCC2 (some centres unmarked) [compound 277] | 1.3 | 3.3 | – | –
CCOC(=O)[C@H]1C2C=CC(C2)[C@H]1NC(=O)c1nn(C2CCCCC2)c2c1CCCC2 (some centres unmarked) [compound 279] | 3.8 | 0.83 | – | –
CCOC(=O)[C@@H]1C2C=CC(C2)[C@@H]1NC(=O)c1nn(C2CCCCC2)c2c1CCCC2 (some centres unmarked) [compound 280] | 3.6 | 0.679 | – | –
CCOC(=O)[C@H]1C2CCC(C2)[C@H]1NC(=O)C(C)(C)Cc1nn(C2CCCCC2)c2c1CCCC2 (some centres unmarked) [compound 281] | 19.7 | 16.5 | – | –
CCOC(=O)[C@H]1C2CCC(C2)[C@H]1NC(=O)c1nn(C2CCCCC2)c2c1CCCC2OC (some centres unmarked) [compound 282] | 11.8 | 3.8 | – | –
CC(NC(=O)c1nn(-c2ccc(Cl)cc2Cl)c2c1CCCC2)C12CC3CC(CC(C3)C1)C2 (centres unmarked) [compound 283] | 0.1 | 0.1 | – | –
CCOC(=O)C1CCCc2c1c(C(=O)N[C@H](C)C1CCCCC1)nn2C1CCCCC1 (some centres unmarked) [compound 285] | 2.9 | 2.4 | – | –
O=C(NN1CCCCC1)c1nn(-c2ccc(Cl)cc2Cl)c2c1CCCC2 [compound 287] | 2.5 | 2.1 | – | –
CCOC(=O)C1CCc2c(c(C(=O)N[C@H](C)C3CCCCC3)nn2Cc2ccccc2)C1 (some centres unmarked) [compound 289] | 0.88 | 0.4 | – | –
CCOC(=O)C1CC=CCC1NC(=O)c1nn(C2CCCCC2)c2c1CCCC2 (centres unmarked) [compound 301] | 0.024 | 0.033 | – | –
CC(C)N(C(=O)c1nn(C2CCCCC2)c2c1CCCC2)[C@H](C)C1CCCCC1 [compound 329] | 1.7 | 0.02 | – | –
CC(CC1CCCCC1)NC(=O)c1nn(C2CCCCC2)c2c1CCCC2 (centres unmarked) [compound 330] | 1.9 | 0.03 | – | –
CC(NC(=O)Nc1nn(C2CCCCC2)c2c1CCCC2)C1CCCCC1 (centres unmarked) [compound 334] | 12.5 | 0.98 | – | –
